Data reported in the NIST ThermoML archive (doi:10.1016/j.jct.2010.07.001).
± gives the expanded uncertainty stated by the source.

Assays:
[1] = Crystal; DTA
[2] = Molar enthalpy of transition or fusion; conditions: Crystal; DSC

| Normal melting temperature [1] [°C] | Molar enthalpy of transition or fusion [2] [kcal/mol] | SMILES |
| --- | --- | --- |
| 230.0 ± 2.1 | 17 ± 9.56 | Cc1cccc(Nc2ccccc2C(=O)O)c1C [2-((2,3-dimethylphenyl)amino)benzoic acid] |
| 130.2 ± 2.1 | 12.7 ± 0.335 | CC(C)(C)NCC(O)COc1cccc2c1CC(O)C(O)C2 (configuration not stated) |
| 151.4 ± 2.1 | 8.75 ± 0.239 | CC(C)NCC(O)COc1ccc(CC(N)=O)cc1 (configuration not stated) [2-(4-(2-hydroxy-3-(isopropylamino)propoxy)phenyl)acetamide] |
| 254.0 ± 2.1 | 10.8 ± 0.287 | C[C@]12CC[C@@H]3c4ccc(O)cc4CC[C@H]3[C@@H]1CCC2=O [3-hydroxy-1,3,5(10)-estratrien-17-one] |
| 149.1 ± 2.1 | 11.3 ± 0.311 | CS(=O)(=O)Nc1ccc([N+](=O)[O-])cc1Oc1ccccc1 [nimesulide] |
| 150 ± 2.1 | 8.96 ± 0.239 | c1ccc(-c2ccc(C(c3ccccc3)n3ccnc3)cc2)cc1 (configuration not stated) [1-([1,1'-biphenyl]-4-yl(phenyl)methyl)-1H-imidazole] |
